This passage reports Ki and IC50 results from patent US12286435B2, “Compound having benzo seven-membered ring structure, preparation method therefor, and use thereof” (BIONNA (BEIJING) MEDICAL TECHNOLOGY CO., LTD., priority 2019, dated 2025).

One experiment has as its target BRD4 BD1 protein (Homo sapiens (Human), UniProt O60885). Nature of the experiment: Fluorescence polarization binding affinity (Ki) with BRD4 BD1 protein. The following applies: fluorescence polarization; Ki calculated from IC50.
The target of a further experiment is BRD4 BD2 protein (Homo sapiens (Human), UniProt O60885). Nature of the experiment: Fluorescence polarization binding affinity (Ki) with BRD4 BD2 protein. The following applies: fluorescence polarization; Ki calculated from IC50.
The test system of experiment [1] is multiple myeloma MM.1S cell line. Nature of the experiment: Cell viability (CCK-8), multiple myeloma MM.1S. Format: cell-based. The following applies: MM.1S cells, 4 days, CCK-8, 50% inhibition of cell growth. Here is the method:
3. Determination of cell viability of the compound
The sample to be tested was dissolved with 100% dimethyl sulfoxide to prepare a 20 mM stock solution of the compound, which was diluted with 100% dimethyl sulfoxide to the highest compound concentration required for the experiment (2.5 mM).
First, 145 uL of a complete cell culture medium was added to wells B1-G1 of a 96-well flat-bottomed tansparent cell culture plate, and 100 uL of the complete medium was added to wells B2-G12, respectively. Then, 5 uL of the 2.5 mM solution of the compound was added to wells B1-D1 and E1-G1 respectively, and then diluted gradiently by 3-folds to B12-D12 and E12-G12 in sequence. Finally, 50 uL of the solution of the cells to be tested was added to each well, with about 3000-5000 cells per well, and a total volume of 150 uL per well.
In the experiment, in addition to the tested compound, two other control groups were set up: 1) a control group adding the cells and the complete medium, but without adding the compound; 2) a control group adding the complete medium only, without adding the cells and the compound. The 96-well plate was placed in a 37° C. cell culture incubator containing 5% carbon dioxide for 4 days, added with 15 uL of a CCK-8 reagent per well, and then incubated at 37° C. for 2-4 hours. The 96-well plate was read on a TECAN microplate reader, and the absorbance value at 450 nm wavelength was taken.
The effect of different concentrations of the compound on cell viability was calculated by the following equation: [absorption value of the experimental group−absorption value of pure cell culture medium without the cells or the compound]/[absorption value of the control group with the tumor cells but no testing compound−absorption value of pure cell culture medium without the cell or the compound]×100%.
The above data were precessed by software, and the IC50 value was the concentration of the compound corresponding to the 50% inhibition rate of cell growth.
Based on the above test method of the compound on cell viability, a variety of […] cancer cell lines were tested, using multiple myeloma MM.1S, breast cancer MDA-MB-231 and leukemia MV4-11 cell lines as exemples. Using this test method, the IC50 values of partial compounds in the examples of the present invention measured in multiple myeloma MM.1S, breast cancer MDA-MB-231 cell lines and leukemia MV4-11 cell lines were shown in Table 2.

Where “and” joins values, the source holds several entries; their conditions need not be identical. Equal values may be shown once. Where a name gives a salt, the structure may show the parent alone.

Regarding `Cc1nnn2c1-c1ccc(-c3cnn(C)c3)cc1C(Nc1ccc(O)cc1)CC2` (stereo not drawn) [LB143, 4-((1-methyl-9-(1-methyl-1H-pyrazol-4-yl)-6,7-dihydro-5H-benzo[c][1,2,3]triazolo[1,5-a]azepin-7-yl)amino)phenol], the figures for the inhibition constant Ki on BRD4 BD1 protein and on BRD4 BD2 protein were 78.3 nM and 9.61 nM, respectively. In addition, the IC50 (as a rule, the concentration that inhibits the measured activity by half) in experiment [1] (Homo sapiens, MM1.S, 96 h) amounted to 118 nM.

Consider `Cc1nnn2c1-c1ccc(-c3cnn(C)c3)cc1C(Nc1ccccc1CN(C)C)CC2` (stereo not drawn) [LC29, N-(2-((dimethylamino)methyl)phenyl)-1-methyl-9-(1-methyl-1H-pyrazol-4-yl)-6,7-dihydro-5H-benzo[c][1,2,3]triazolo[1,5-a]azepin-7-amine], for which the Ki (as a rule, a dissociation constant, usually derived from enzyme kinetics or from competition with a known ligand) was 19.4 nM at BRD4 BD1 protein and 7.6 nM at BRD4 BD2 protein. The compound further yielded an IC50 in experiment [1] (Homo sapiens, MM1.S, 96 h) of 12.2 nM.

In the case of `CCc1nnn2c1-c1ccc(-c3cnn(C)c3)cc1C(Nc1ccc(Cl)cc1)CC2` (stereo not drawn) [BE02, N-(4-chlorophenyl)-1-ethyl-9-(1-methyl-1H-pyrazol-4-yl)-6,7-dihydro-5H-benzo[c][1,2,3]triazolo[1,5-a]azepin-7-amine], the values for the inhibition constant (Ki) at BRD4 BD1 protein and at BRD4 BD2 protein were 128 nM and 42.8 nM, respectively. In addition, the IC50 in experiment [1] (Homo sapiens, MM1.S, 96 h) stood at 138 nM.

Turning to `Cc1nnn2c1-c1ccc(-c3cnn(C)c3)cc1C(Nc1ccc(C(O)(C(F)(F)F)C(F)(F)F)cc1)CC2` (stereo not drawn) [LB83, 1,1,1,3,3,3-hexafluoro-2-(4-((1-methyl-9-(1-methyl-1H-pyrazol-4-yl)-6,7-dihydro-5H-Benzo[c][1,2,3]triazolo[1,5-a]azepin-7-yl)amino)phenyl)propan-2-ol], the Ki on BRD4 BD1 protein is 180 nM; on BRD4 BD2 protein, 38.4 nM. For the same compound, the midpoint of inhibition in experiment [1] (Homo sapiens, MM1.S, 96 h), the IC50, lay at 250 nM.

`Cn1cc(-c2ccc3c(c2)C(Nc2ccc(Cl)cc2)CCn2nnc(C4CC4)c2-3)cn1` (stereo not drawn) [BE44, N-(4-chlorophenyl)-1-cyclopropyl-9-(1-methyl-1H-pyrazol-4-yl)-6,7-dihydro-5H-benzo[c][1,2,3]triazolo[1,5-a]azepin-7-amine]: the values for the Ki at BRD4 BD1 protein and at BRD4 BD2 protein were 173 nM and 48.1 nM, respectively. This compound gave a 50% inhibitory concentration (IC50) in experiment [1] (Homo sapiens, MM1.S, 96 h) of 989 nM.

Take `Cc1nnn2c1-c1ccc(C3=CCNCC3)cc1C(Nc1ccc(Cl)cc1)CC2` (stereo not drawn) [RB99, N-(4-chlorophenyl)-1-methyl-9-(1,2,3,6-tetrahydropyridin-4-yl)-6,7-dihydro-5H-benzo[c][1,2,3]triazolo[1,5-a]azepin-7-amine hydrochloride]: the Ki on BRD4 BD1 protein is 422 nM; on BRD4 BD2 protein, 19.4 nM. In experiment [1] (Homo sapiens, MM1.S, 96 h), this compound showed an IC50 of 215 nM.

For the compound `Cc1nnn2c1-c1ccc(-c3cccnc3)cc1C(Nc1ccc(Cl)cc1)CC2` (stereo not drawn) [RA193, N-(4-chlorophenyl)-1-methyl-9-(pyridin-3-yl)-6,7-dihydro-5H-benzo[c][1,2,3]triazolo[1,5-a]azepin-7-amine], the Ki was 52 nM at BRD4 BD1 protein and 11.1 nM on BRD4 BD2 protein. Further, the IC50 in experiment [1] (Homo sapiens, MM1.S, 96 h) amounted to 50.5 nM.

As for `Cc1nnn2c1-c1ccc(-c3cnn(C)c3)cc1C(Nc1ccc(C(=O)O)cc1)CC2` (stereo not drawn) [LB20, 4-((1-methyl-9-(1-methyl-1H-pyrazol-4-yl)-6,7-dihydro-5H-benzo[c][1,2,3]triazolo[1,5-a]azepin-7-yl)amino)benzoic acid], the Ki on BRD4 BD1 protein was 1720 nM; at BRD4 BD2 protein, 82.8 nM. The same compound registered an IC50 in experiment [1] (Homo sapiens, MM1.S, 96 h) of 2460 nM.

Consider `Cc1nnn2c1-c1ccc(-c3cnn(C)c3)cc1C(Nc1ccc3ncccc3c1)CC2` (stereo not drawn) [LB88, 1-methyl-9-(1-methyl-1H-pyrazol-4-yl)-N-(quinolin-6-yl)-6,7-dihydro-5H-benzo[c][1,2,3]triazolo[1,5-a]azepin-7-amine], for which the Ki on BRD4 BD1 protein was 137 nM; on BRD4 BD2 protein, 15.1 nM. This compound gave a 50% inhibitory concentration (IC50) in experiment [1] (Homo sapiens, MM1.S, 96 h) of 24.3 nM.

For `Cc1nnn2c1-c1ccc(-c3cncc4[nH]ccc34)cc1C(Nc1ccc(Cl)cc1)CC2` (stereo not drawn) [RB90, N-(4-chlorophenyl)-1-methyl-9-(1H-pyrrolo[2,3-c]pyridin-4-yl)-6,7-dihydro-5H-benzo[c][1,2,3]triazolo [1,5-a]azepin-7-amine], the values for the inhibition constant (Ki) on BRD4 BD1 protein and on BRD4 BD2 protein were 104 nM and 35.2 nM, respectively. This compound had a half-maximal inhibitory concentration (IC50) in experiment [1] (Homo sapiens, MM1.S, 96 h) of 257 nM.

Consider `Cc1nnn2c1-c1ccc(-c3cnn(C)c3)cc1C(Nc1ccc(CC#N)cc1)CC2` (stereo not drawn) [LC03, 2-(4-((1-methyl-9-(1-methyl-1H-pyrazol-4-yl)-6,7-dihydro-5H-benzo[c][1,2,3]triazolo[1,5-a]azepin-7-yl)amino)phenyl)acetonitrile], for which the inhibitory constant (Ki) is 32.9 nM on BRD4 BD1 protein; 1.33 nM and 4.03 nM at BRD4 BD2 protein. The compound also displayed a half-inhibitory concentration (IC50) in experiment [1] (Homo sapiens, MM1.S, 96 h) of 59 nM.

Turning to `CCN1CC=C(c2ccc3c(c2)C(Nc2cccc(OC)c2)CCn2nnc(C)c2-3)CC1` (stereo not drawn) [BH33, 9-(1-ethyl-1,2,3,6-tetrahydropyridin-4-yl)-N-(3-methoxyphenyl)-1-methyl-6,7-dihydro-5H-benzo[c][1,2,3]triazolo[1,5-a]azepin-7-amine 2,2,2-trifluoroacetate], the Ki on BRD4 BD1 protein is 1780 nM and 693 nM; at BRD4 BD2 protein, 38.6 nM and 27.9 nM. In addition, the midpoint of inhibition in experiment [1] (Homo sapiens, MM1.S, 96 h), the IC50, lay at 187 nM.

Turning to `Cc1nnn2c1-c1ccc(-c3cnn(C)c3)cc1C(Nc1cccc(CC#N)c1)CC2` (stereo not drawn) [LC20, 2-(3-((1-methyl-9-(1-methyl-1H-pyrazol-4-yl)-6,7-dihydro-5H-benzo[c][1,2,3]triazolo[1,5-a]azepin-7-yl)amino)phenyl)acetonitrile], the figures for the Ki at BRD4 BD1 protein and on BRD4 BD2 protein were 59.6 nM and 15 nM, respectively. Moreover, the midpoint of inhibition in experiment [1] (Homo sapiens, MM1.S, 96 h), the IC50, lay at 25.3 nM.

For `Cc1nnn2c1-c1ccc(-c3ccnc4[nH]ccc34)cc1C(Nc1ccc(Cl)cc1)CC2` (stereo not drawn) [RB31, N-(4-chlorophenyl)-1-methyl-9-(1H-pyrrolo[2,3-b]pyridin-4-yl)-6,7-dihydro-5H-benzo[c][1,2,3]triazolo[1,5-a]azepin-7-amine], the inhibition constant Ki on BRD4 BD1 protein was 33.6 nM; on BRD4 BD2 protein, 24.7 nM. This compound also registered a 50% inhibitory concentration (IC50) in experiment [1] (Homo sapiens, MM1.S, 96 h) of 676 nM.

Turning to `Cc1nnn2c1-c1ccc(-c3cnn(C)c3)cc1C(Nc1ccc(CO)cc1)CC2` (stereo not drawn) [LB35, (4-((1-methyl-9-(1-methyl-1H-pyrazol-4-yl)-6,7-dihydro-5H-benzo[c][1,2,3]triazolo[1,5-a]azepin-7-yl)amino)phenyl)methanol], the Ki on BRD4 BD1 protein was 614 nM; on BRD4 BD2 protein, 23.9 nM. For the same compound, the concentration for half-maximal inhibition (IC50) in experiment [1] (Homo sapiens, MM1.S, 96 h) is 36.5 nM.

For the compound `CNC(=O)Cc1ccc(NC2CCn3nnc(C)c3-c3ccc(-c4cnn(C)c4)cc32)cc1` (stereo not drawn) [LB142], the inhibition constant Ki was 69 nM on BRD4 BD1 protein and 11.4 nM on BRD4 BD2 protein. This compound also gave an IC50 in experiment [1] of 114 nM.

Consider `Cc1nnn2c1-c1ccc(-c3ccc(NC(=O)OC(C)(C)C)cc3)cc1C(Nc1ccc(Cl)cc1)CC2` (stereo not drawn) [RA194, tert-butyl (4-(7-((4-chlorophenyl)amino)-1-methyl-6,7-dihydro-5H-benzo[c][1,2,3]triazolo[1,5-a]azepin-9-yl)phenyl)carbamate], for which the inhibitory constant (Ki) is 29.1 nM at BRD4 BD1 protein and 24.1 nM on BRD4 BD2 protein. The compound further registered a half-maximal inhibitory concentration (IC50) in experiment [1] (Homo sapiens, MM1.S, 96 h) of 329 nM.

In the case of `Cc1nnn2c1-c1ccc(-c3cnn(C)c3)cc1C(Nc1ccc3[nH]ccc3c1)CC2` (stereo not drawn) [LB98, N-(1H-indo1-5-yl)-1-methyl-9-(1-methyl-1H-pyrazol-4-yl)-6,7-dihydro-5H-benzo[c][1,2,3]triazolo[1,5-a]azepin-7-amine], the Ki on BRD4 BD1 protein was 52.4 nM; at BRD4 BD2 protein, 9.1 nM. In experiment [1] (Homo sapiens, MM1.S, 96 h), this compound displayed a half-maximal inhibitory concentration (IC50) of 21.5 nM.

Regarding `Cc1nnn2c1-c1ccc(-c3cnn(C)c3)cc1C(Nc1cccc3cccnc13)CC2` (stereo not drawn) [LB91, 1-methyl-9-(1-methyl-1H-pyrazol-4-yl)-N-(quinolin-8-yl)-6,7-dihydro-5H-benzo[c][1,2,3]triazolo[1,5-a]azepin-7-amine], the inhibitory constant (Ki) on BRD4 BD1 protein is 81.4 nM; at BRD4 BD2 protein, 11.6 nM. In experiment [1] (Homo sapiens, MM1.S, 96 h), this compound displayed an IC50 of 13.4 nM.

`Cc1noc2c1-c1ccc(-c3cnn(C)c3)cc1C(Nc1ccc(Cl)cc1)CC2` (stereo not drawn) [LA55, N-(4-chlorophenyl)-1-methyl-8-(1-methyl-1H-pyrazol-4-yl)-5,6-dihydro-4H-benzo[6,7]cyclohepta[1,2-d]isoxazol-6-amine]: the Ki is 53.7 nM at BRD4 BD1 protein and 25.5 nM at BRD4 BD2 protein. Further, the IC50 in experiment [1] (Homo sapiens, MM1.S, 96 h) stood at 26.5 nM.

Turning to `Cc1nnn2c1-c1ccc(-c3cnn(C)c3)cc1C(Nc1ccnn1C)CC2` (stereo not drawn) [BE118, 1-methyl-9-(1-methyl-1H-pyrazol-4-yl)-N-(1-methyl-1H-pyrazol-5-yl)-6,7-dihydro-5H-benzo[c][1,2,3] triazolo[1,5-a]azepin-7-amine], the inhibition constant (Ki) on BRD4 BD1 protein was 272 nM; on BRD4 BD2 protein it was 23.6 nM. The compound further gave an IC50 in experiment [1] (Homo sapiens, MM1.S, 96 h) of 604 nM.

For `Cc1nnn2c1-c1ccc(-c3cnn(C)c3)cc1C(Nc1cccc(CC(=O)O)c1)CC2` (stereo not drawn) [LB62, 2-(3-((1-methyl-9-(1-methyl-1H-pyrazol-4-yl)-6,7-dihydro-5H-benzo[c][1,2,3]triazolo[1,5-a]azepin-7-yl)amino)phenyl) acetic acid], the values for the Ki at BRD4 BD1 protein and at BRD4 BD2 protein were 229 nM and 13 nM, respectively. For the same compound, half-maximal inhibition in experiment [1] (Homo sapiens, MM1.S, 96 h) (IC50) required 14000 nM.
